Data reported in patent US20050244490A1, “Dosing methods for beta-D-2',3'-dideoxy-2',3'-didehydro-5-fluorocytidine antiviral therapy” (priority 2003, published 2005).

Columns and labels:
[1] = Comparison to other nucleosides: plasma pharmacokinetics
[2] = system: acutely HIV-1 infected human PBM cells; test: Median effect / combination index study with Racivir; assay type: cell-based; settings: Human immunodeficiency virus 1, PBMC, 120 h, Day 5, assays (1), (2), (3)
[3] = system: AZT/3TC-resistant HIV-1 recombinant viruses; test: microbe, parasite or virus in culture; assay type: cell-based; settings: Human immunodeficiency virus 1, read-out: Average IC90 for AZT/3TC-R virus
Description: A panel of 22 viruses was constructed in the HXB2 background using the Protease and RT sequences from clinical isolates to determine Virco Profiling against recombinant clinical isolates (see FIGS. 7a and 7b). Viruses contained 2 to 17 mutations in RT frequently associated with nucleoside resistance, including: M184V, M41L, D67N, T215Y. IC50 values were determined using a high through-put reporter virus assay.

clinical = settings: in vivo
[4] = pbmc
wild type HIV-RT = molecular target: T1, wild type HIV-RT (Human immunodeficiency virus type 1 group M subtype B, UniProt P04585); test: Ki / Km for wild type HIV-RT; assay type: biochemical, HIV-1
T1 construct: The Ki value for β-D-D4FC-TP for wild type HIV-RT

[5] = human, in vivo

For `O=c1[nH]cnc2c1ncn2[C@H]1CC[C@@H](CO)O1` [DDI, 2′,3′-dideoxyinosine], the half-life [1] was 1.5 h, the EC50 ([2]; read-out: EC50) was 0.38 µM and the EC90 ([2]; read-out: EC90) was 2.2 µM. For the same molecule, the IC90 [3] was 12.6 µM, the Cmax (clinical) was 4.2 µM and the Intracellular half life [4] was 25 to 40 h. The Ki (wild type HIV-RT) was 0.08 to 8 µM and the “Intracellular [Nuc-PPP] in patients” value [5] was under 0.5 µM.
